Experimental data: patent US20090069324A1, “CHEMICAL INHIBITORS OF BFL-1 AND RELATED METHODS” (The Burnham Institute, priority 2007, published 2009)

Tests used:
[1] = Plasma stability; assay type: in vitro ADME; details: fresh rat plasma, 37.5° C.
Experimental: CID-779754 (MLS-0067130) has a metabolic half life of >60 min in the presence of rat liver microsomes when incubated at 37.5° C. (FIG. 6A), with 64% of the compound remaining at 1 hour. The plasma stability of CID-779754 is also good, with 79% remaining after incubating at 37.5° C. for 1 hour in fresh rat plasma (FIG. 6B).

[2] = test system: human mast cells; assay: Primary mast cell survival assay (activation-induced survival); assay type: cell-based
Experimental: To validate the biological activity of the probe in a cellular readout that is Bfl-1 dependent, CID-779754 was tested in an assay measuring the effect of compounds on primary mast cell survival.
The effect of a Bfl-1 inhibitor at, for example, 1 μM is tested on CBMCs derived from, for example, 12 different individuals. CBMCs are activated by aggregation of the high-affinity IgE-receptor (FcεRI)±CID-779754. Mast cells are cultured with or without IgE crosslinking (IgECL) agent, without or with Bfl-1 inhibitor. The percentage cell survival upon IgE-receptor activation are compared to cells not activated and the delta survival is calculated. Cell survival is measured by LDH release and data were presented as % difference between cells cultured with or without IgECL.

[3] = target: T1, Bcl-2 (Homo sapiens, UniProt P10415); assay: Bcl-2/FITC-Bim FPA selectivity assay; assay type: binding; details: Bcl-2/FITC-Bim complex
T1 construct: lacking their C-terminal transmembrane domains (approximately last 20 amino-acids); GST (N); made in house; host or cells: XL-1 Blue cells (E. coli), pGEX 4T-1
T1 sequence (P10415 1-218 limits assumed): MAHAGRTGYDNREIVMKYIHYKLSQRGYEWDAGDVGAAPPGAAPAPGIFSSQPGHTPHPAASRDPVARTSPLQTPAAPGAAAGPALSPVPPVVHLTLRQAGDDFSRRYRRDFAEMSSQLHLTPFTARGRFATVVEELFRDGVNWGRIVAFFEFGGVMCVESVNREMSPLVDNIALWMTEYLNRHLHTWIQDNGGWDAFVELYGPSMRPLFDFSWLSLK
Source text: This example illustrates assays for determining the selectivity of chemical inhibitors for Bfl-1. Bfl-1, as with other Bcl-2 family proteins, participates in a very complex and intricate network of interactions with other representatives of the family. Therefore, two selectivity assays involving family members Bcl-2 and Bcl-B were developed.
For Bcl-2, a FITC-conjugated peptide corresponding to the BH3 domain of Bim was used. For Bcl-B, a FITC-conjugated peptide corresponding to a fragment of the TR3/Nur77 protein shown to bind this member of the Bcl-2 family was used.
Probe specificity for target or for cell-based/phenotypic assays data can be determined in orthogonal cell-based assay systems that address the pathway of interest. For example, compounds were tested in Bfl-1/FITC-Bid FPA and TR-FRET assays (FIGS. 7A and 7B, respectively), as well as Bcl-2/FITC-Bim FPA (FIG. 7C) and Bcl-B/FITC-TR3-R8 FPA (FIG. 7D) assays. Data represent concentration in μM x-axis) vs % displacement (y-axis).

[4] = test system: cord blood derived human mast cells (CBMCs); assay: LDH release cytotoxicity assay; assay type: cell-based
Experimental: To investigate whether a Bfl-1 inhibitor is cytotoxic to cord blood derived human mast cells (CBMCs), a […] assay based on the measurement of lactate dehydrogenase (LDH) activity is used. CBMC are cultured with various concentrations of the Bfl-1 inhibitor, and LDH release into the culture supernatant is measured. […] The positive control in FIG. 8 is a control included in the LDH kit. Thus, CID-779754 is not cytotoxic to in vitro developed human mast cells.

[5] = target: T2, Bfl-1 (Homo sapiens, UniProt Q16548); assay: Bfl-1 TR-FRET assay (FITC-Bid, Tb-anti-GST antibody); assay type: binding; details: Tables 3-5; read-out: Bfl-1 TR FRET IC50
T2 construct: lacking their C-terminal transmembrane domains (approximately last 20 amino-acids); made in house; host or cells: XL-1 Blue cells (E. coli), pGEX 4T-1
T2 sequence (Q16548 1-155 limits assumed): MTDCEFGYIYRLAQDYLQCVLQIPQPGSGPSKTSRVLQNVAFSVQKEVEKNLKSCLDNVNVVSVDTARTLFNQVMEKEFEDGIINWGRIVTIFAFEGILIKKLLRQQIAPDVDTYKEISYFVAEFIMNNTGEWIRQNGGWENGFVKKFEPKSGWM
Experimental: TR-FRET assay. For confirmation of FPA results, a TR-FRET assay utilizing terbium- (Tb-) labeled anti-GST antibody (Th-Ab) was developed. […] The reaction mixture was preincubated for 1 h, and TR-fluorescence (TRF) was measured on an M5 plate reader (Molecular Devices) using excitation at 340 nm and emission at […]. The measurements were averaged from 5 readings during 1 ms after an initial delay 0.1 ms. TR-FRET signal was calculated as the ratio of TR-Fluorescence at 520 nm to TR-Fluorescence at […].
For Bfl-1 TR-FRET assays, Bfl-1 protein and FITC-Bid peptide (FITC-Ahx-[…]) (SEQ ID NO: 1) were utilized. Terbium-anti-GST antibody (Tb-anti-GST Ab) was obtained from Invitrogen (San Diego Calif.). The assay buffer contained 25 mM Bis-Tris, pH 7.0, 1 mM TCEP, and 0.005% Tween 20. The Tb-Ab buffer contained 2.5 nM Tb-anti-GST antibody in assay buffer. The Bfl-1/Th-Ab working solution contained 5 nM Bfl-1 in Th-Ab assay buffer. The solution was prepared fresh and kept on ice prior to use. The FITC-Bid working solution contained 5.6 nM FITC-Bid in assay buffer.
For the Bfl-1 TR-FRET dose-response screening protocol, dose-response curves contained 10 concentrations of compounds obtained using 2-fold serial dilution. Compounds were serially diluted in 100% DMSO, and then diluted with water to 10% final DMSO concentration. A 4 μl aliquot of compounds in 10% DMSO was transferred into columns 3-22 of Greiner 384-well white small-volume plates. Columns 1-2 and 23-24 contained 4 μL of 10% DMSO.
Columns 1-2 were reserved for positive controls, and 8 μL of Th-Ab buffer was added using a WellMate bulk dispenser (Matrix). An aliquot of 8 μL of Bfl-1/Th-Ab working solution was added to columns 3-24 of Greiner 384 well white plates using a WellMate bulk dispenser (Matrix). Columns 23-24 represented negative control wells. Plates were incubated for 1 h at 4° C. An 8 μL aliquot of freshly prepared FITC-Bid working solution was added to the whole plate using WellMate bulk dispenser (Matrix). Plates were incubated for 4 h at room temperature protected from direct light. Fluorescence was measured on the M5 plate reader (excitation: 340 nm, emission: 490 and 520 nm, cutoff: 475 and 515 nm, respectively) in Time Resolved (TR) mode with signal integrated for 1 ms after initial delay of 0.1 ms. TR-FRET signal was calculated as the ratio of TR-Fluorescence at 520 nm to TR-Fluorescence at 490 nm. Data analysis was performed using a sigmoidal dose-response equation through non-linear regression.

[6] = PAMPA assay; assay type: in vitro ADME

SMILES: CN(C)C1=C(Cl)C(=O)N(c2ccc(Cl)c(Cl)c2)C1=O [CID-779754, 3-chloro-1-(3,4-dichlorophenyl)-4-(dimethylamino)-1H-pyrrole-2,5-dione]
- remaining after incubating for 1 hour [1]: 79%
- effect on activation-induced survival of mast cells [2]: inhibited the activation-induced survival of human mast cells
- Competition for binding of a BH3 peptide to Bcl-2, in words [3]: weak activity
- cytotoxicity (LDH release) ([4]; 0.1-100 μM, n=4 donors): no cytoxicity
- toxicity to normal human cells ([4]; normal human cells): not toxic to normal human cells
- IC50 [5]: 0.57 µM
- log Pe ([6]; PAMPA): −4.2
- predicted human GI absorption ([6]; correlated from PAMPA log Pe): > 50%
